Measured values from patent US20260117171A1, “Human Pregnancy on a Chip for Normal and Disease Biomarker Discovery and Preclinical Trials” (Board of Regents, The University of Texas System, priority 2023, published 2026).

Tested on: CD45+ cells
Experiment: CD45+ cell trafficking between maternal/fetal compartments in the OOC device in response to an infectious stimulus
Format: cell-based, human
Conditions: LPS as infectious stimulus, preliminary study
Experimental: Immune cell migration and phenotyping by Cytometry by Time Of Flight (CyTOF) analysis: Preliminary CD45+ cell trafficking studies between the maternal/fetal compartments in the OOC device in response to an infectious stimulus (lipopolysaccharide [LPS]), to mimic bacterial infection, was conducted. In this model, LPS increased CD45+ cell influx into the fetal side and increased inflammation. Similar experiments can be repeated, and cell marker specificity can be tested through flow cytometry and immunocytochemistry^178. To study immunophenotypic changes associated with migrating immune cells, a multiplex tissue imaging technology can be used, e.g., Imaging Mass Cytometry (IMC) at an unprecedented resolution^179. IMC allows highly multiplexed, metal-based detection of 30 different protein markers at the same time, and enables high-dimensional, single-cell analysis of complex cell types without any background noise^180-184 (see Table 3 for a list of key/exemplary antibodies). For IMC, the top PDMS part can be removed so that fixed/attached cells stay on the histological glass slides on which the OOC device is built. IMC technology can be introduced to the OOC field, which allows for the analysis of cellular-level changes in OOC.

lipopolysaccharide [LPS]
CD45+ cell influx into the fetal side: increased
inflammation: increased
